From patent US11331330B2, “Phytochemical-antibiotic combination for the treatment of a bacterial infection” (University of Saskatchewan, priority 2018, dated 2022)
Converted amounts (≈) assume the structure as drawn. “Also recorded” adds a separate entry of the source.

Assays:
[1] = test system: Mannheimia haemolytica ATCC 29702; test: MIC by standard broth micro dilution assay (CLSI); type: cell-based; conditions: ATCC29702, M. haemolytica, BHIB, 37° C., 18-24 h
Procedure: (§1) The bacterial strains of Mannheimia haemolytica ATCC 29702 and Pasteurella multocida ATCC 43137 were purchased from American Type Culture Collection (ATCC) distributor CEDARLANE Corporation, Burlington, Ontario, Canada and revived according to the manufacturer's instruction. Bacteria were grown in Brain Heart Infusion broth (BHIB).
(§2) MIC of tulathromycin and gallic acid against Mannheimia haemolytica and Pasteurella multocida was determined by using standard broth micro dilution assay as outlined by CLSI (Richard S, Lynn S-M, Avery C G. Antimicrobial susceptibility testing protocols. New York: CRC Press; 2007). Strains were sub-cultured in Brain Heart Infusion Broth (BHIB), incubated at 37° C. overnight and bacterial suspension OD was adjusted with the media to 0.5 McFarland turbidity as per CLSI protocol (Approx. cell density 1.5×10^8 CFU/mL) using normal saline as control. 100 μl of broth was added to each well (including positive control wells) and then serial dilution of tulathromycin (5 to 0.04 μg/ml) and gallic acid (500 to 3.9 μg/ml) was executed. 5 μl of bacterial sample was added to all the wells except the positive control well. […] Plates were then incubated at 37° C. for 18-24 h and were subsequently read automatically by using 96 well plate reader (BIORAD iMark Microplate Reader) at 655 nm. The readings were double checked manually using the Sensititre Vizion System.

[2] = test system: Pasteurella multocida ATCC 43137; test: MIC by standard broth micro dilution assay (CLSI); type: cell-based; conditions: ATCC43137, P. multocida, BHIB, 37° C., 18-24 h
Procedure: as §1, §2

[3] = test system: co-culture of M. haemolytica and P. multocida; test: MIC against the co-culture; type: cell-based
Procedure: MIC of tulathromycin, gallic acid and its combinations were determined against the co-culture of M. haemolytica and P. multocida. The overnight grown cultures of M. haemolytica and P. multocida were adjusted to 0.5 McFarland standard turbidity in BHIB, and then equal proportion of each of the cultures was added in the 96 well plates. After the addition of serially diluted drugs, the plates were incubated at 37° C. overnight and read as of above.

[4] = test system: M. haemolytica ATCC 29702; test: Synergy studies, checker board serial dilution; type: cell-based, Mannheimia haemolytica; conditions: gallic acid alone, 3.9 μg/ml dose
Procedure: (§3) For the drug interaction studies, gallic acid was mixed with tulathromycin to test the drug interactions between tulathromycin and gallic acid. This was done by a checker board serial dilution technique performed in 96-well polypropylene plates (as explained elsewhere, for example, in [11]). The fractional inhibitory concentration (FIC) index of the combinations of antimicrobial compounds was calculated according to the equation: FIC index=FICA+FICB=A/MICA+B/MICB where A (gallic acid) and B (Tulathromycin) are the MICs of compound A and compound B in combination. MICA and MICB are the MICs of compound A and compound B, separately, FICA and FICB are the FICs of compound A and compound B (Hal M J J Antimicrob Chemother. 1983 May; 11(5):427-33). Results (a) Antimicrobial Activity of Tulathromycin and Gallic Acid
(§4) • FICA, FICB—Fractional inhibitory concentration of drug A & B respectively. • MICA, MICB—Minimum inhibitory concentration of drug A & B respectively. • [A], [B]—Concentration of drug A & B respectively. • The FIC indexes were interpreted as follows: synergy is defined as ≤0.5; additivity is defined as 0.5<4.0; and antagonism is defined as >4. (d) Resistance Generation Study Results

P. multocida ATCC 43137 = test: Synergy studies, checker board serial dilution; type: cell-based, Pasteurella multocida; conditions: gallic acid alone, 3.9 μg/ml dose
Procedure: as §3, §4

M. haemolytica = test: Resistance generation study; type: cell-based, Mannheimia haemolytica; conditions: sub-MIC (1/2 MIC) doses, stress generation conditions
Procedure: (§5) For the resistance generation studies, M. haemolytica and P. multocida were cultured in the presence of sub-MIC doses (1/2 MIC) of tulathromycin and gallic acid individually until they reach 1 unit OD at 565 nm. The bacterial cells were then given antibiotic stress relaxation by culturing them in BHIB till 1 OD unit of turbidity is reached at 565 nm. This first pass cycle of culturing in sub-MIC dose of tulathromycin, and relaxing in BHIB is considered as 1st generation (1G-TulathromycinA). The cycle as above was repeated to obtain 2nd and 3rd generation of bacterial cultures. Subsequently, MIC assays were performed with all the three generations of the two bacterial strains to evaluate the level of sensitivity towards tulathromycin. The experiments were repeated with gallic acid.
(§6) Bacteria were treated individually with sub-MIC dose (½ MIC) of tulathromycin and gallic acid with alternate relaxation of stress in BHIB for […] each. Each 24 hrs treatment was considered as 1 generation (24 hrs drug+24 hrs of BHIB).

P. multocida = test: Resistance generation study; type: cell-based, Pasteurella multocida; conditions: sub-MIC (1/2 MIC) doses, stress generation conditions
Procedure: as §5, §6

arginase = arginase inhibitor; cited from earlier work

O=C(O)c1cc(O)c(O)c(O)c1 [gallic acid]
MIC [1]: 250 µg/mL (≈ 1470 µM)
MIC [2]: 500 µg/mL (≈ 2940 µM)
MIC [3]: 500 µg/mL
maximum reduction in bacterial growth [4]: 7.70%
maximum reduction in bacterial growth (P. multocida ATCC 43137): 5.33%
effect of sub-MIC pre-treatment on sensitivity of the bacteria (M. haemolytica): does not affect the sensitivity; also recorded: no effect on the sensitivity
effect of sub-MIC pre-treatment on sensitivity of the bacteria (P. multocida): did not alter the sensitivity; also recorded: no effect on the sensitivity
IC50 (arginase): 2200 nM
